For eleven compounds, IC50 results are on record in publication doi:10.1101/2021.10.13.464265v1 (biorxiv, 2021).

One assay deals with E. coli csrA::kanB. In words: microbe, parasite or virus in culture. More on the design: species or system E. coli MG1655 csrA::kanB. Particulars: Escherichia coli, read-out: csrA::kanB [Ara] = 0 mg/L.
The test system of assay [1] is E. coli csrA::kanB pBAD-nahKm. In words: microbe, parasite or virus in culture. The arrangement: species or system E. coli MG1655 csrA::kanB. The note with it: Escherichia coli, read-out: pBAD-nahKm [Ara] = 50 mg/L.
For assay [2], the system named is E. coli csrA::kanB pBAD-nahK. In words: microbe, parasite or virus in culture. The arrangement: species or system E. coli MG1655 csrA::kanB. Particulars: Escherichia coli, read-out: pBAD-nahK [Ara] = 0 mg/L.
The test system of assay [3] is E. coli csrA::kanB pBAD-nahK. Description: microbe, parasite or virus in culture. More on the design: species or system E. coli MG1655 csrA::kanB. The note with it: Escherichia coli, read-out: pBAD-nahK [Ara] = 50 mg/L.
For assay [4], the target named is T1, PgaCDm (PgaC V227L PgaD N75D/K76E) (Escherichia coli, UniProt P75905, V227L).
T1 sequence (P75905 1-441 V227L): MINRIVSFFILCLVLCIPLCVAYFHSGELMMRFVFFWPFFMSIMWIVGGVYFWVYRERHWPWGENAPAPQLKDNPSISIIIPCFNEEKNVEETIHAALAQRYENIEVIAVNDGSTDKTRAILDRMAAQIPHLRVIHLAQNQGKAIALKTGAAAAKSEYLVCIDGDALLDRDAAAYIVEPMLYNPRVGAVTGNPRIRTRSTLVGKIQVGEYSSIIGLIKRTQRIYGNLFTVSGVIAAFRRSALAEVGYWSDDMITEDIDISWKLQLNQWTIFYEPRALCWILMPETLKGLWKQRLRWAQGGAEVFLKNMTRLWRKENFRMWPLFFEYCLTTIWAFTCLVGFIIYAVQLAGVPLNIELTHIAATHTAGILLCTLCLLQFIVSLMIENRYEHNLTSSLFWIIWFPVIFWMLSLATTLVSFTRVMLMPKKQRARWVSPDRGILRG
T1 sequence (P69432 1-137 N75D/K76E partner): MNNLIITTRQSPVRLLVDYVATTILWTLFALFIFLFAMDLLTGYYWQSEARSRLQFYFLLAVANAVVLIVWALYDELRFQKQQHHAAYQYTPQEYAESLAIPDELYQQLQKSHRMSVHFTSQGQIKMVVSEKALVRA
In words: WGA-HRP dot blot of PNAG, densitometry. Type of assay: biochemical.

Assay [5] concerns E. coli csrA::kanB pBAD-nahK. Description: microbe, parasite or virus in culture. The note with it: Escherichia coli, read-out: pBAD-nahK [Ara] = 50 mg/L, DTT. The arrangement: species or system E. coli MG1655 csrA::kanB.

Read-outs that look alike come from different tables or passages of the source.

For `CC(=O)N[C@H]1C(O)O[C@H](C)[C@@H](O)[C@@H]1O` (mixture of isomers) [1-H, 6-deoxyGlcNAc], the IC50 in the assay with E. coli csrA::kanB is 530 ± 30 µM; in assay [1], 500 ± 100 µM; in assay [2] it was 330 ± 10 µM; in assay [3], 8 ± 2 µM.

For the compound `CC(=O)NC1C(O)OC(CN=[N+]=[N-])C(O)C1O` (centres unmarked) [1-N3, 6-azidoGlcNAc], the IC50 in assay [1] was over 5000 µM; in assay [2] it was over 5000 µM; in assay [3] it was 2700 ± 400 µM.

In assay [4], `CC(=O)N[C@H]1[C@@H](OP(=O)(O)OP(=O)(O)OC[C@H]2O[C@@H](n3ccc(=O)[nH]c3=O)[C@H](O)[C@@H]2O)O[C@H](CF)[C@@H](O)[C@@H]1O` [2-F, UDP-6-fluoroGlcNAc] yielded an IC50 of 150 ± 10 µM.

Turning to `CC(=O)NC1C(O)OC(CN)C(O)C1O` (centres unmarked) [1-NH2, 6-aminoGlcNAc], the IC50 in assay [1] is over 2000 µM; in assay [2] it was over 2000 µM; in assay [3], 150 ± 60 µM.

For the compound `CC(=O)N[C@H]1[C@@H](OP(=O)(O)OP(=O)(O)OC[C@H]2O[C@@H](n3ccc(=O)[nH]c3=O)[C@H](O)[C@@H]2O)O[C@H](CN)[C@@H](O)[C@@H]1O` [2-NH2, 6-amino derivative], in assay [4], the IC50 came out at 480 ± 60 µM.

For `CC(=O)N[C@H]1[C@@H](OP(=O)(O)OP(=O)(O)OC[C@H]2O[C@@H](n3ccc(=O)[nH]c3=O)[C@H](O)[C@@H]2O)O[C@H](CS)[C@@H](O)[C@@H]1O` [2-SH, UDP-6-thioGlcNAc], the IC50 in assay [4] was 60 ± 20 µM.

`CC(=O)N[C@H]1C(O)O[C@H](CF)[C@@H](O)[C@@H]1O` (mixture of isomers) [1-F, 6-fluoroGlcNAc]: the IC50 is over 2000 µM in assay [1], over 2000 µM in assay [2] and 13 ± 3 µM in assay [3].

In turn, `CC(=O)N[C@H]1[C@@H](OP(=O)(O)OP(=O)(O)OC[C@H]2O[C@@H](n3ccc(=O)[nH]c3=O)[C@H](O)[C@@H]2O)O[C@H](CN=[N+]=[N-])[C@@H](O)[C@@H]1O` [2-N3, 6-azido analogue] displayed an IC50 in assay [4] of over 10000 µM.

For the compound `CC(=O)NC1C(O)OC(CS)C(O)C1O` (centres unmarked) [1-SH, 6-thioGlcNAc], the IC50 in assay [1] is over 2000 µM; in assay [2], over 2000 µM; in assay [3] it was 130 µM; in assay [5], 64 ± 2 µM.

Turning to `O=c1ccn([C@@H]2O[C@H](COP(=O)(O)OP(=O)(O)O)[C@@H](O)[C@H]2O)c(=O)[nH]1` [UDP], the IC50 in assay [4] was found to be 2700 ± 900 µM.

In assay [4], `CC(=O)N[C@H]1[C@@H](OP(=O)(O)OP(=O)(O)OC[C@H]2O[C@@H](n3ccc(=O)[nH]c3=O)[C@H](O)[C@@H]2O)O[C@H](C)[C@@H](O)[C@@H]1O` [2-H, UDP-6-deoxyGlcNAc] displayed an IC50 of 30 µM.
